Source: PMC3409642 (Pharmaceutical research, 2012)
“And” between values parts separate entries of the source, which are not always exact repeats. Identical values can stand only once.

Target: T1, UGT1A9 (Homo sapiens, UniProt O60656)
T1 sequence (O60656 26-530): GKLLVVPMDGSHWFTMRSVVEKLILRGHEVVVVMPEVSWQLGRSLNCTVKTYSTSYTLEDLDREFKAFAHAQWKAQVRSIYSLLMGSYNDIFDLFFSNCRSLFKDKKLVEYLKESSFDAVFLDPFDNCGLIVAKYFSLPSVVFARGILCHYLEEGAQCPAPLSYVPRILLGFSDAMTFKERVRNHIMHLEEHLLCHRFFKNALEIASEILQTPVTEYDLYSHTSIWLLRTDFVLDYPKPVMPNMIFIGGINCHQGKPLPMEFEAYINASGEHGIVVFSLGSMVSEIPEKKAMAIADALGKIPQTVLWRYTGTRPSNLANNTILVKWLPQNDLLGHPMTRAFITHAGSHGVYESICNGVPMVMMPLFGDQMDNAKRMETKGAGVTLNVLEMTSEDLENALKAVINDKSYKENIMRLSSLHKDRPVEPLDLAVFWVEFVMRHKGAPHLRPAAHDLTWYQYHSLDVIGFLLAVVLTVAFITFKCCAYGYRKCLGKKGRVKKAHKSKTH
Test: Kinetic profiling of glucuronidation by expressed human UGT1A9
Settings: for Log (CLint) (Actual): log of experimental CLint (μl/mg/min)

SMILES	Log (CLint) (Actual)	further results
O=C(CCc1ccc(O)cc1)c1c(O)cc(O)cc1O [7.a, Phloretin]	2.87	Log (CLint) (Actual) (listed as 7.b): 3.17
N#C/C(=C\c1ccc(O)c(O)c1)C(=O)NCc1ccccc1 [23.a, Tyrphostin B42]		Vmax (pH 7.4): 3677 pmol/mg/min and 2008 pmol/mg/min
COc1ccc(-c2oc3cc(O)ccc3c(=O)c2O)cc1OC [69.a, 3,7-Dihydroxy-3′,4′-dimethoxyflavone]		Log (CLint) (Actual) (listed as 69.b): 1.00
O=c1c(O)c(-c2cc(O)c(O)c(O)c2)oc2cc(O)cc(O)c12 [90.a, Myricetin]	2.90	Log (CLint) (Actual) (listed as 90.b): 3.36; Log (CLint) (Actual) (listed as 90.c): 3.69
O=c1c(O)c(-c2ccc(O)cc2)oc2cc(O)ccc12 [92.a, Resokaempferol]	3.86	Log (CLint) (Actual) (listed as 92.b): 2.63
COc1cc(-c2oc3cc(O)cc(O)c3c(=O)c2O)cc(OC)c1O [94.a, Syringetin]	3.87	Log (CLint) (Actual) (listed as 94.b): 2.26
O=C(O)/C=C/c1ccc(O)c(O)c1 [97.a, Caffeic Acid]	1.04	Log (CLint) (Actual) (listed as 97.b): 0.30
Nc1ccc(C(=O)O)c(O)c1 [aminosalicylic acid, reference compound]		glucuronide metabolite formation on incubation with UGT1A9 (non-substrate) (incubating compound with UGT1A9): no metabolite can be detected
Oc1cc(O)c2c(c1)O[C@H](c1cc(O)c(O)c(O)c1)[C@H](O)C2 [compound 2, (−)-Epigallocatechin]	1.58	
O=C(/C=C/c1ccccc1O)c1ccccc1 [compound 3, 2-Hydroxychalcone]	3.38	
O=C(/C=C/c1ccc(O)cc1)c1ccccc1 [compound 4, 4-Hydroxychalcone]	1.53	
O=C(/C=C/c1ccccc1)c1ccc(O)cc1 [compound 6, 4′-Hydroxychalcone]	2.29	
O=c1oc2cc(O)ccc2c(-c2ccccc2)c1-c1ccccc1 [compound 9, 3,4-Diphenyl-7-hydroxycoumarin]	1.61	
Cc1ccc2oc(=O)cc(O)c2c1 [compound 11, 4-Hydroxy-6-methylcoumarin]	0.59	
CC(=O)CC(c1ccccc1)c1c(O)c2cccc(O)c2oc1=O (centres unmarked) [compound 13, 8-Hydroxywarfarin]	1.40	

Further lines, with some results ahead:

Log (CLint) (Actual)	SMILES	further results
3.08	O=c1cc(-c2ccc(O)c(O)c2)oc2cc(O)ccc12 [41.a, 7,3′,4′-Trihydroxyflavone]	Log (CLint) (Actual) (listed as 41.b): 2.48; Log (CLint) (Actual) (listed as 41.c): 2.11
3.58	O=c1cc(-c2ccc(O)c(O)c2)oc2cc(O)cc(O)c12 [56.a, Luteolin]	Log (CLint) (Actual) (listed as 56.b): 3.32
3.66	COc1cc(-c2oc3cc(O)ccc3c(=O)c2O)cc(OC)c1OC [67.a, 3,7-Dihydroxy-3′,4′,5′-trimethoxyflavone]	
4.32	O=c1c(O)c(-c2ccccc2)oc2cc(O)ccc12 [68.a, 3,7-Dihydroxyflavone]	Log (CLint) (Actual) (listed as 68.b): 3.13
3.38	O=c1c(O)c(-c2ccc(O)c(O)c2)oc2cc(O)ccc12 [84.a, Fisetin]	Log (CLint) (Actual) (listed as 84.b): 3.55; Log (CLint) (Actual) (listed as 84.c): 3.49
3.78	O=c1c(O)c(-c2ccc(O)cc2)oc2cc(O)cc(O)c12 [88.a, Kaempferol]	Log (CLint) (Actual) (listed as 88.b): 2.34
3.97	O=c1c(O)c(-c2ccc(O)c(O)c2)oc2cc(O)cc(O)c12 [91.a, Quercetin]	Log (CLint) (Actual) (listed as 91.b): 3.32; Log (CLint) (Actual) (listed as 91.c): 3.65
0.91	O=c1ccoc2cc(O)ccc12 [compound 8, 7-Hydroxychromone]	
2.48	Cc1cc(=O)oc2cc(O)ccc12 [compound 10, 4-Methylumbelliferone]	
1.07	COc1cc2oc(=O)cc(-c3ccccc3)c2cc1O [compound 12, 6-Hydroxy-7-methoxyl-4-phenylcoumarin]	
2.28	COc1cc2ccc(=O)oc2cc1O [compound 14, Scopoletin]	
